# Source: ChEMBL document CHEMBL2407043, “Hydantoin based inhibitors of MMP13--discovery of AZD6605” (Bioorg Med Chem Lett, 2013)
# Tests used:
# Cytochrome P450 2C9 = Cytochrome P450 2C9 (Homo sapiens, UniProt P11712); experiment: Inhibition of human CYP2C9; format: ADME
# [1] = Genotoxicity in mouse lymphoma cells; format: toxicity, cell-based
# Cytochrome P450 2C19 = Cytochrome P450 2C19 (Homo sapiens, UniProt P33261); experiment: Inhibition of human CYP2C19; format: ADME
# [2] = Half life in dog at 0.5 mg/kg, iv and 1 mg/kg, po; format: ADME, organism-based, Canis lupus familiaris; details: in vivo
# [3] = Solubility of compound in fasted state simulated intestinal fluid; format: physicochemical
# [4] = Fraction unbound in human plasma; format: ADME, cell-free
# [5] = Fraction unbound in dog plasma; format: ADME, cell-free, Canis lupus familiaris
# Rattus norvegicus [6] = species: Rattus norvegicus; experiment: Toxicity in rat assessed as change in clinical chemistry or hematological parameters after 28 days; format: organism-based; details: in vivo, 672 h
# [7] = Oral bioavailability in rat at 5 mg/kg; format: ADME, organism-based; details: in vivo
# in vitro [8] = details: human, Caco-2
# [9] = target: Matrix metalloproteinase-14 (Homo sapiens, UniProt P50281)
# [10] = Volume of distribution at steady state in rat at 2 mg/kg, iv and 5 mg/kg, po; format: ADME, organism-based; details: in vivo, read-out: Vdss
# Rattus norvegicus [11] = species: Rattus norvegicus; experiment: Toxicity in rat assessed as fibrodysplasia after 28 days; format: organism-based; details: in vivo, 672 h
# Cavia porcellus = species: Cavia porcellus; experiment: animal or person; details: Dunkin Hartley, sc, 2016 h, read-out: INH
# [12] = Half life in rat at 2 mg/kg, iv and 5 mg/kg, po; format: ADME, organism-based; details: in vivo
# Rattus norvegicus [13] = species: Rattus norvegicus; experiment: Toxicity in rat assessed as change in connective tissue after 28 days; format: organism-based; details: in vivo, 672 h
# [14] = Clearance in dog at 0.5 mg/kg, iv and 1 mg/kg, po; format: ADME, organism-based, Canis lupus familiaris; details: in vivo
# [15] = Volume of distribution at steady state in dog at 0.5 mg/kg, iv and 1 mg/kg, po; format: ADME, organism-based, Canis lupus familiaris; details: in vivo, read-out: Vdss
# [16] = Intrinsic clearance in human hepatocytes measured per 10^6 cells; format: ADME, cell-based, Hepatocyte; details: read-out: CLH
# Cytochrome P450 3A4 = Cytochrome P450 3A4 (Homo sapiens, UniProt P08684); experiment: Inhibition of human CYP3A4; format: ADME
# Cytochrome P450 3A4, sequence (P08684 whole entry): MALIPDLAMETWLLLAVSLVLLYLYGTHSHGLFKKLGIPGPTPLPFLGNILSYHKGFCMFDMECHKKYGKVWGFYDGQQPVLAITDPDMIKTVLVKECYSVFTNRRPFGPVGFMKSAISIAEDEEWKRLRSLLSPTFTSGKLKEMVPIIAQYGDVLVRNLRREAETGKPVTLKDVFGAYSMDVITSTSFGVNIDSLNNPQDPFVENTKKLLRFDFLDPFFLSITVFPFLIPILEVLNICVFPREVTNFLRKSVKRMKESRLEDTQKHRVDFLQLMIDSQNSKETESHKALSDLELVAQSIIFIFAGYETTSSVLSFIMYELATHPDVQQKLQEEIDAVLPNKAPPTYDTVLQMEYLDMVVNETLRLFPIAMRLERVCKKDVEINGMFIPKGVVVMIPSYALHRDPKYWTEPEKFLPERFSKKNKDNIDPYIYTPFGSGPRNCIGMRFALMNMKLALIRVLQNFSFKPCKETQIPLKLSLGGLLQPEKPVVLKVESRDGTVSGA
# [17] = Thermodynamic solubility of the compound in phosphate buffer at pH 7.4 at 25 degC after 24 hrs; details: read-out: Therm_solubility
# physchem = details: buffer, pH 7.4
# Cytochrome P450 2D6 = Cytochrome P450 2D6 (Homo sapiens, UniProt P10635); experiment: Inhibition of human CYP2D6; format: ADME
# Cytochrome P450 2D6, sequence (P10635 whole entry): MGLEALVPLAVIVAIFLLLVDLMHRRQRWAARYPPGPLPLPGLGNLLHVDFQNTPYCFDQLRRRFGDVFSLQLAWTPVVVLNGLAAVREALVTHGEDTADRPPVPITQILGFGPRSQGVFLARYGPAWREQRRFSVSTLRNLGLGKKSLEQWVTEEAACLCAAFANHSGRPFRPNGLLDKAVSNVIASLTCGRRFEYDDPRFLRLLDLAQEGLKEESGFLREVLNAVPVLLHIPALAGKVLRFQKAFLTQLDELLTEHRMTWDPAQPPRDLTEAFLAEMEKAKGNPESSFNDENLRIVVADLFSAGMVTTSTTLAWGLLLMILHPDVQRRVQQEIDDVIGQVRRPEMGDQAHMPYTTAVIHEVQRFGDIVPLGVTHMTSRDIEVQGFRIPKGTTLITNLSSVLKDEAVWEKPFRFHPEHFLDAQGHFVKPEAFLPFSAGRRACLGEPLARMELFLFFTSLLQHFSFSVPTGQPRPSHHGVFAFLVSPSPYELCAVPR
# [18] = Fraction unbound in rat plasma; format: ADME, cell-free
# Salmonella typhimurium = experiment: Mutagenic activity in Salmonella typhimurium by Ames assay; format: toxicity, organism-based; details: salmonella enterica subsp. enterica serovar typhimurium
# [19] = Oral bioavailability in dog at 1 mg/kg; format: ADME, organism-based, Canis lupus familiaris; details: in vivo
# [20] = Apparent permeability across basolateral to apical side in human Caco2 cells at 10 uM; format: ADME, cell-based; details: Caco-2
# in vitro [21] = details: human, liver microsomes
# Cytochrome P450 1A2 = target: T1, Cytochrome P450 1A2 (Homo sapiens, UniProt P05177); experiment: Inhibition of human CYP1A2; format: ADME
# T1 sequence (P05177 whole entry): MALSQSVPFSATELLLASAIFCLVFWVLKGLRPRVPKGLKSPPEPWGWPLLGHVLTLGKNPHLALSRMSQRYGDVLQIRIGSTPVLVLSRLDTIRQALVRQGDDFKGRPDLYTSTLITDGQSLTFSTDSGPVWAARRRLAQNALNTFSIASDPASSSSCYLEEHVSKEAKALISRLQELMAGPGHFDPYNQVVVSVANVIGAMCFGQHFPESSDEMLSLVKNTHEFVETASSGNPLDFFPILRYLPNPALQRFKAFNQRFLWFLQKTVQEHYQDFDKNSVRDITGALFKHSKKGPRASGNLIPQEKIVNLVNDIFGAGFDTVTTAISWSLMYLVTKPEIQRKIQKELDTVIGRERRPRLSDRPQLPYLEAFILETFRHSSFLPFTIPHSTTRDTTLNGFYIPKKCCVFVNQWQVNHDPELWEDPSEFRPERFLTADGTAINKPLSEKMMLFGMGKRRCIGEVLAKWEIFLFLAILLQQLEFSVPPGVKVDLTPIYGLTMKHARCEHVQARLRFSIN
# Rattus norvegicus [22] = species: Rattus norvegicus; experiment: Toxicity in rat assessed as mortality after 28 days; format: organism-based; details: in vivo, 672 h
# Rattus norvegicus [23] = species: Rattus norvegicus; experiment: Toxicity in rat assessed as change in food and water consumption after 28 days; format: organism-based; details: in vivo, 672 h
# Rattus norvegicus [24] = species: Rattus norvegicus; experiment: Toxicity in rat assessed as change in body weight after 28 days; format: organism-based; details: in vivo, 672 h
# [25] = Clearance in rat at 2 mg/kg, iv and 5 mg/kg, po; format: ADME, organism-based; details: in vivo
# Cytochrome P450 2C19, sequence (P33261 whole entry): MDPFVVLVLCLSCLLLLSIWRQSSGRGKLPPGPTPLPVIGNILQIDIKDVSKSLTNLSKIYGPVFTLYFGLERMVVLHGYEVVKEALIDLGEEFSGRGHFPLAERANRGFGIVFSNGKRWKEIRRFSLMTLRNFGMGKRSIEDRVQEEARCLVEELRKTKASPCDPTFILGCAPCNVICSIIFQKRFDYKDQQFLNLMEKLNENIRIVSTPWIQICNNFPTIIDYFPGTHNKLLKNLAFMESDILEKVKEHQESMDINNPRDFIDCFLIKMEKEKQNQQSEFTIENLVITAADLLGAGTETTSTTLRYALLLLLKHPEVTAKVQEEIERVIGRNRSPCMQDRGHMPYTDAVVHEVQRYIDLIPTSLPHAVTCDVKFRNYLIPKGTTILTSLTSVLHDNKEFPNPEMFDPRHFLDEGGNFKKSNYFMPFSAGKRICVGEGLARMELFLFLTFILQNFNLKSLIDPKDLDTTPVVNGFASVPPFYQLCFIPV
# Cytochrome P450 2C9, sequence (P11712 whole entry): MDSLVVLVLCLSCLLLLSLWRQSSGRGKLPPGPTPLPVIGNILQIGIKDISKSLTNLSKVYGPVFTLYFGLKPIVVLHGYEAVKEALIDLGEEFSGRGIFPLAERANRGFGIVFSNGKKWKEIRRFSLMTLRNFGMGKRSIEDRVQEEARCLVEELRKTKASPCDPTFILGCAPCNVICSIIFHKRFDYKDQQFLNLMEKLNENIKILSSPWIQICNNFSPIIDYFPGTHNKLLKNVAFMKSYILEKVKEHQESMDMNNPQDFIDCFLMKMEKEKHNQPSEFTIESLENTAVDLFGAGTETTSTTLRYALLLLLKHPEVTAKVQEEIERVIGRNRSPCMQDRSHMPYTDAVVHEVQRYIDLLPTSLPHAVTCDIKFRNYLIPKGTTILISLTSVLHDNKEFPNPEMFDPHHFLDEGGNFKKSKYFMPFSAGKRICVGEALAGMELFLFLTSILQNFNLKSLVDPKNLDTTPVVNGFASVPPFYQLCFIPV
structure (smiles),measurement,setting,value
C[C@]1(CS(=O)(=O)N2CCC(Oc3ccc(OC(F)(F)C(F)F)cc3)CC2)NC(=O)NC1=O,IC50,Cytochrome P450 2C9,> 10 µM
same,Activity,[1],Non-toxic
same,IC50,Cytochrome P450 2C19,> 10 µM
same,half-life,[2],35 h
same,solubility,[3],14.9 µM
same,fraction unbound,[4],0.05
same,fraction unbound,[5],0.05
same,Activity,Rattus norvegicus [6],Non-toxic
same,bioavailability,[7],64%
same,Papp A→B at 10 µM,in vitro [8],21 ×10⁻⁶ cm/s
same,IC50,[9],2.22 µM
same,Vd,[10],0.6 L/kg
same,Activity,Rattus norvegicus [11],Non-toxic
same,inhibition in vivo at 11 mg/kg/day,Cavia porcellus,104%
same,half-life,[12],16 h
same,Activity,Rattus norvegicus [13],Non-toxic
same,clearance,[14],0.2 mL/min/kg
same,Vd,[15],0.6 L/kg
same,hepatocyte CLint,[16],< 2 µL/min/1e6 cells
same,IC50,Cytochrome P450 3A4,> 10 µM
same,solubility thermodynamic at 24 h,[17],6.8 µM
same,logD,physchem,2
same,IC50,Cytochrome P450 2D6,> 10 µM
same,fraction unbound,[18],0.03
same,Activity,Salmonella typhimurium,Non-toxic
same,bioavailability,[19],40%
same,Papp B→A at 10 µM,[20],52 ×10⁻⁶ cm/s
same,microsomal CLint,in vitro [21],< 2 µL/min/mg
same,IC50,Cytochrome P450 1A2,> 10 µM
same,Activity,Rattus norvegicus [22],Non-toxic
same,Activity,Rattus norvegicus [23],Non-toxic
same,Activity,Rattus norvegicus [24],Non-toxic
same,clearance,[25],0.4 mL/min/kg
